From ChEMBL document CHEMBL4387758, “Discovery and Biological evaluation of pyrimido[4,5-d]pyrimidine-2,4(1H,3H)-dione derivatives as potent Bruton's tyrosine kinase inhibitors” (Bioorg Med Chem, 2019)

Tests used:
[1] = biological target: T1, Tyrosine-protein kinase BTK (Homo sapiens, UniProt Q06187); test: Inhibition of BTK (unknown origin) by ELISA
TMD8 [2] = test: Antiproliferative activity against human TMD8 cells assessed as reduction in cell viability incubated for 72 hrs by CCK-8 assay; type: functional, cell-based; settings: TMD8, 72 h
[3] = biological target: T1, Tyrosine-protein kinase BTK; test: Inhibition of BTK phosphorylation at Tyr223 residue in human TMD8 cells at 0.1 to 1000 nM by Western blot analysis; type: cell-based
TMD8 [4] = test: Cell cycle arrest in BTK-dependent human TMD8 cells assessed as accumulation of cells in G1 phase at 1 uM incubated for 72 hrs by propidium iodide staining based flow cytometry; type: functional
Ramos = test: cells; settings: Homo sapiens, 72 h
Description: Antiproliferative activity against human Ramos cells assessed as reduction in cell viability incubated for 72 hrs by CCK-8 assay

Homo sapiens = species on record: Homo sapiens; test: Selectivity ratio of IC50 for inhibition of EGFR (unknown origin) to IC50 for inhibition of BTK (unknown origin)

T1 sequence (Q06187 whole entry): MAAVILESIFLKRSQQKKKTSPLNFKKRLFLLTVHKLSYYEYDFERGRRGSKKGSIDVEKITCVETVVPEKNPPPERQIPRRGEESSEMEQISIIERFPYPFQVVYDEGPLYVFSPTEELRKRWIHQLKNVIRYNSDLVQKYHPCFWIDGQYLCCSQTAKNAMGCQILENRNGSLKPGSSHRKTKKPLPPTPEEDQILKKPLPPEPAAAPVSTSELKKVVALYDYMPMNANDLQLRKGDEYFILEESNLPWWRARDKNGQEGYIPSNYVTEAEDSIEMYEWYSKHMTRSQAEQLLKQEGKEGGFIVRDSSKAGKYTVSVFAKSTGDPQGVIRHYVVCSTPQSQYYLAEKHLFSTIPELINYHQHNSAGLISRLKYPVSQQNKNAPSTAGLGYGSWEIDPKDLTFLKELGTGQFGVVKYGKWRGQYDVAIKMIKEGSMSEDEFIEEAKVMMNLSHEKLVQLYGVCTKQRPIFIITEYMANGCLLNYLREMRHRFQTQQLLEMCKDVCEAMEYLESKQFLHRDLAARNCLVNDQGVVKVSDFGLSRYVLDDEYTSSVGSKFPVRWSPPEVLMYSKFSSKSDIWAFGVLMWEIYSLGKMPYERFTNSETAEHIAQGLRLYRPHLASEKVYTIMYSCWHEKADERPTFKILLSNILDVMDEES

Compound	IC50 [1]	further results
C=CC(=O)Nc1cccc(-n2c(=O)n(C)c(=O)c3cnc(Nc4ccc(N5CCN(C(C)=O)CC5)cc4OC)nc32)c1	718 nM	–
C=CC(=O)Nc1cccc(-n2c(=O)n(C)c(=O)c3cnc(Nc4ccc(N5CCSCC5)cc4OC)nc32)c1	806 nM	–
C=CC(=O)Nc1cccc(-n2c(=O)n(C(C)C)c(=O)c3cnc(Nc4ccc(N(C)CCN(C)C)cc4OC)nc32)c1	982 nM	–
C=CC(=O)Nc1cccc(-n2c(=O)n(C)c(=O)c3cnc(Nc4ccc(N5CCC(N(C)C)CC5)cc4OC)nc32)c1	364 nM	–
C=CC(=O)Nc1cccc(-n2c(=O)n(CC)c(=O)c3cnc(Nc4ccc(N5CCC(N(C)C)CC5)cc4OC)nc32)c1	396 nM	–
C=CC(=O)Nc1cccc(-n2c(=O)n(C(C)C)c(=O)c3cnc(Nc4ccc(N5CCC(N(C)C)CC5)cc4OC)nc32)c1	359 nM	–
C=CC(=O)Nc1cccc(-n2c(=O)n(C)c(=O)c3cnc(Nc4ccc(N5CCOCC5)cc4OC)nc32)c1	852 nM	–
C=CC(=O)Nc1cccc(-n2c(=O)n(C)c(=O)c3cnc(Nc4ccccc4OC)nc32)c1	996 nM	–
C=CC(=O)Nc1cccc(-n2c(=O)n(C(C)C)c(=O)c3cnc(Nc4ccc(N5CCN(C)CC5)cc4OC)nc32)c1	518 nM	–

Further lines, with some results ahead:

IC50 [1]	Compound	further results
6.2 nM	C=CC(=O)Nc1cccc(-n2c(=O)n(C)c(=O)c3cnc(Nc4ccccc4)nc32)c1	–
0.8 nM	C=CC(=O)Nc1cccc(-n2c(=O)n(C(C)C)c(=O)c3cnc(Nc4ccc(N5CCN(C)CC5)c(C)c4)nc32)c1	IC50 (TMD8 [2]): 720 nM; inhibition [3]: Dose-dependent effect; Activity (TMD8 [4]): 75.2%; IC50 (Ramos): 9.21 µM
1.2 nM	C=CC(=O)Nc1cccc(-n2c(=O)n(C(C)C)c(=O)c3cnc(Nc4ccc(N5CCN(C)CC5)c(OC)c4)nc32)c1	IC50 (TMD8 [2]): 810 nM; inhibition [3]: Dose-dependent effect; Activity (TMD8 [4]): 75.4%; IC50 (Ramos): 9.65 µM
145 nM	C=CC(=O)Nc1cccc(-n2c(=O)n(C(C)C)c(=O)c3cnc(Nc4ccc(N5CCC(N6CCN(C)CC6)CC5)cc4OC)nc32)c1	–
30 nM	C=CC(=O)Nc1cccc(-n2c(=O)n(CCC)c(=O)c3cnc(Nc4ccc(N5CCC(N(C)C)CC5)cc4OC)nc32)c1	–
349 nM	C=CC(=O)Nc1cccc(-n2c(=O)n(C(C)C)c(=O)c3cnc(Nc4ccc(OCCN(C)C)cc4OC)nc32)c1	–
23 nM	C=CC(=O)Nc1cccc(-n2c(=O)n(CCc3ccccc3)c(=O)c3cnc(Nc4ccc(N5CCC(N(C)C)CC5)cc4OC)nc32)c1	–
248 nM	C=CC(=O)Nc1cccc(-n2c(=O)n(Cc3ccccc3)c(=O)c3cnc(Nc4ccc(N5CCC(N(C)C)CC5)cc4OC)nc32)c1	Ratio IC50 (Homo sapiens): 206
76 nM	C=CC(=O)Nc1cccc(-n2c(=O)n(CCCc3ccccc3)c(=O)c3cnc(Nc4ccc(N5CCC(N(C)C)CC5)cc4OC)nc32)c1	–
